The NIST ThermoML archive (doi:10.1016/j.jct.2019.03.023)
Where “and” joins values, the source holds several entries; their conditions need not be identical. Equal entries are not always repeated. ± gives the expanded uncertainty stated by the source.

Assay: molar heat capacity at constant volume
Settings: Vacuum adiabatic calorimetry

CC(C)O [propan-2-ol]
Fluid (supercritical or subcritical phases)
Settings | molar heat capacity at constant volume
380.8 K, Mass density=697.69 kg/m3 | 187.08 ± 5.6 J/K/mol
380.91 K, Mass density=697.69 kg/m3 | 187.8 ± 5.6 J/K/mol
381.02 K, Mass density=697.69 kg/m3 | 186.29 ± 5.6 J/K/mol
381.13 K, Mass density=697.69 kg/m3 | 184.61 ± 5.5 J/K/mol
381.24 K, Mass density=697.69 kg/m3 | 185.39 ± 5.6 J/K/mol
381.35 K, Mass density=697.69 kg/m3 | 184.49 ± 5.5 J/K/mol
381.46 K, Mass density=697.69 kg/m3 | 184.01 ± 5.5 J/K/mol
381.57 K, Mass density=697.69 kg/m3 | 184.67 ± 5.5 J/K/mol
381.69 K, Mass density=697.69 kg/m3 | 184.97 ± 5.5 J/K/mol
391.32 K, Mass density=329.2 kg/m3 | 243.38 ± 7.3 J/K/mol
391.53 K, Mass density=329.2 kg/m3 | 248.85 ± 7.5 J/K/mol
391.54 K, Mass density=329.2 kg/m3 | 243.44 ± 7.3 J/K/mol
391.65 K, Mass density=329.2 kg/m3 | 246.93 ± 7.4 J/K/mol
391.76 K, Mass density=329.2 kg/m3 | 235.69 ± 7.1 J/K/mol
391.87 K, Mass density=329.2 kg/m3 | 241.16 ± 7.3 J/K/mol
391.98 K, Mass density=329.2 kg/m3 | 242.54 ± 7.3 J/K/mol
392.09 K, Mass density=329.2 kg/m3 | 244.11 ± 7.3 J/K/mol
392.2 K, Mass density=329.2 kg/m3 | 243.2 ± 7.3 J/K/mol
399.51 K, Mass density=343.1 kg/m3 | 235.93 ± 7.1 J/K/mol
399.72 K, Mass density=343.1 kg/m3 | 235.93 ± 7.1 J/K/mol
399.83 K, Mass density=343.1 kg/m3 | 239.24 ± 7.2 J/K/mol
399.94 K, Mass density=343.1 kg/m3 | 242.54 ± 7.3 J/K/mol
400.04 K, Mass density=343.1 kg/m3 | 236.05 ± 7.1 J/K/mol
400.15 K, Mass density=343.1 kg/m3 | 239.36 ± 7.2 J/K/mol
400.25 K, Mass density=343.1 kg/m3 | 239.42 ± 7.2 J/K/mol
400.36 K, Mass density=343.1 kg/m3 | 239.42 ± 7.2 J/K/mol
400.46 K, Mass density=343.1 kg/m3 | 236.23 ± 7.1 J/K/mol
400.57 K, Mass density=343.1 kg/m3 | 239.54 ± 7.2 J/K/mol
416.55 K, Mass density=329.2 kg/m3 | 258.83 ± 7.8 J/K/mol
416.65 K, Mass density=329.2 kg/m3 | 260.09 ± 7.8 J/K/mol
416.76 K, Mass density=329.2 kg/m3 | 252.52 ± 7.6 J/K/mol
416.86 K, Mass density=329.2 kg/m3 | 257.99 ± 7.8 J/K/mol
416.97 K, Mass density=329.2 kg/m3 | 255.76 ± 7.7 J/K/mol
417.08 K, Mass density=329.2 kg/m3 | 261.47 ± 7.9 J/K/mol
417.18 K, Mass density=329.2 kg/m3 | 252.94 ± 7.6 J/K/mol
417.29 K, Mass density=329.2 kg/m3 | 253.84 ± 7.6 J/K/mol
417.39 K, Mass density=329.2 kg/m3 | 259.73 ± 7.8 J/K/mol
417.5 K, Mass density=329.2 kg/m3 | 261.17 ± 7.8 J/K/mol
442.12 K, Mass density=329.2 kg/m3 | 262.92 ± 7.9 J/K/mol
442.23 K, Mass density=329.2 kg/m3 | 265.86 ± 8 J/K/mol
442.33 K, Mass density=329.2 kg/m3 | 272.53 ± 8.2 J/K/mol
442.43 K, Mass density=329.2 kg/m3 | 265.68 ± 8 J/K/mol
442.54 K, Mass density=329.2 kg/m3 | 266.76 ± 8 J/K/mol
442.64 K, Mass density=329.2 kg/m3 | 267.6 ± 8.1 J/K/mol
442.74 K, Mass density=329.2 kg/m3 | 270.13 ± 8.1 J/K/mol
442.85 K, Mass density=329.2 kg/m3 | 265.86 ± 8 J/K/mol
447.55 K, Mass density=581.06 kg/m3 | 250.9 ± 7.5 J/K/mol
447.75 K, Mass density=581.06 kg/m3 | 250.96 ± 7.5 J/K/mol
447.85 K, Mass density=581.06 kg/m3 | 250.96 ± 7.5 J/K/mol
447.95 K, Mass density=581.06 kg/m3 | 253.06 ± 7.6 J/K/mol
448.05 K, Mass density=581.06 kg/m3 | 255.1 ± 7.6 J/K/mol
448.15 K, Mass density=581.06 kg/m3 | 251.08 ± 7.5 J/K/mol
448.25 K, Mass density=581.06 kg/m3 | 251.08 ± 7.5 J/K/mol
448.35 K, Mass density=581.06 kg/m3 | 253.18 ± 7.6 J/K/mol
448.54 K, Mass density=581.06 kg/m3 | 253.06 ± 7.6 J/K/mol
448.64 K, Mass density=581.06 kg/m3 | 255.16 ± 7.6 J/K/mol
448.74 K, Mass density=581.06 kg/m3 | 253.12 ± 7.6 J/K/mol
448.84 K, Mass density=581.06 kg/m3 | 251.14 ± 7.5 J/K/mol
448.94 K, Mass density=581.06 kg/m3 | 253.18 ± 7.6 J/K/mol
449.04 K, Mass density=581.06 kg/m3 | 253.24 ± 7.6 J/K/mol
449.14 K, Mass density=581.06 kg/m3 | 255.28 ± 7.7 J/K/mol
449.24 K, Mass density=581.06 kg/m3 | 253.3 ± 7.6 J/K/mol
449.34 K, Mass density=581.06 kg/m3 | 253.3 ± 7.6 J/K/mol
449.44 K, Mass density=581.06 kg/m3 | 253.3 ± 7.6 J/K/mol
449.63 K, Mass density=581.06 kg/m3 | 251.56 ± 7.6 J/K/mol
449.73 K, Mass density=581.06 kg/m3 | 253.6 ± 7.6 J/K/mol
449.83 K, Mass density=581.06 kg/m3 | 255.7 ± 7.7 J/K/mol
449.93 K, Mass density=581.06 kg/m3 | 255.7 ± 7.7 J/K/mol
450.03 K, Mass density=581.06 kg/m3 | 251.62 ± 7.6 J/K/mol
450.13 K, Mass density=581.06 kg/m3 | 249.63 ± 7.5 J/K/mol
450.23 K, Mass density=581.06 kg/m3 | 255.82 ± 7.7 J/K/mol
450.33 K, Mass density=581.06 kg/m3 | 253.78 ± 7.6 J/K/mol
450.43 K, Mass density=581.06 kg/m3 | 253.78 ± 7.6 J/K/mol
450.52 K, Mass density=581.06 kg/m3 | 253.84 ± 7.6 J/K/mol
450.62 K, Mass density=581.06 kg/m3 | 253.54 ± 7.6 J/K/mol
450.72 K, Mass density=581.06 kg/m3 | 251.86 ± 7.6 J/K/mol
450.92 K, Mass density=581.06 kg/m3 | 253.72 ± 7.6 J/K/mol
451.06 K, Mass density=581.06 kg/m3 | 251.62 ± 7.6 J/K/mol
451.16 K, Mass density=581.06 kg/m3 | 252.94 ± 7.6 J/K/mol
451.26 K, Mass density=581.06 kg/m3 | 249.63 ± 7.5 J/K/mol
451.36 K, Mass density=581.06 kg/m3 | 249.63 ± 7.5 J/K/mol
451.46 K, Mass density=581.06 kg/m3 | 249.69 ± 7.5 J/K/mol
451.56 K, Mass density=581.06 kg/m3 | 249.69 ± 7.5 J/K/mol
451.66 K, Mass density=581.06 kg/m3 | 251.8 ± 7.6 J/K/mol
451.75 K, Mass density=581.06 kg/m3 | 250.3 ± 7.5 J/K/mol
451.81 K, Mass density=581.06 kg/m3 | 247.95 ± 7.5 J/K/mol
451.83 K, Mass density=581.06 kg/m3 | 250 ± 7.5 J/K/mol and 186.78 ± 5.6 J/K/mol
451.86 K, Mass density=581.06 kg/m3 | 181.85 ± 5.5 J/K/mol
451.91 K, Mass density=581.06 kg/m3 | 175.18 ± 5.3 J/K/mol
451.95 K, Mass density=581.06 kg/m3 | 179.26 ± 5.4 J/K/mol
452.01 K, Mass density=581.06 kg/m3 | 174.52 ± 5.2 J/K/mol

Settings | molar heat capacity at constant volume [J/K/mol]
451.83 K, Liquid | 186.78 ± 5.6
